Test results published in ChEMBL document CHEMBL1201862, “PubChem BioAssay data set” (2004).
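96-well plates; 48 h exposure; 5 concentrations. Endpoints by linear interpolation between flanking doses. Not reached: highest tested concentration assigned. GI50: concentration for 50% inhibition of growth.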 Calls of active or inactive are those of the source. Cut-off read from the data, not from the text of the source: active = GI50 up to about 1.1 µM and inactive = higher.

Experiments:
Assay in all cases: inhibition of tumour cell growth, NCI panel, 48 h
SN12C = system: SN12C
OVCAR-5 = system: OVCAR-5
MDA-MB-435 = system: MDA-MB-435
A549 = system: A549
MCF7 = system: MCF7
NCI-H23 = system: NCI-H23
M14 = system: M14
UACC-257 = system: UACC-257
CCRF-CEM = system: CCRF-CEM
SK-MEL-2 = system: SK-MEL-2
MOLT-4 = system: MOLT-4
SK-MEL-28 = system: SK-MEL-28
HL-60 = system: HL-60
DU-145 = system: DU-145
BT-549 = system: BT-549
OVCAR-4 = system: OVCAR-4
MDA-MB-231 = system: MDA-MB-231
NCI-H460 = system: NCI-H460
IGROV-1 = system: IGROV-1
A498 = system: A498

| Compound | GI50 (SN12C) | GI50 (OVCAR-5) | GI50 (MDA-MB-435) | GI50 (A549) | GI50 (MCF7) | GI50 (NCI-H23) | GI50 (M14) | GI50 (UACC-257) | GI50 (CCRF-CEM) | GI50 (SK-MEL-2) | GI50 (MOLT-4) | GI50 (SK-MEL-28) | GI50 (HL-60) | GI50 (DU-145) | GI50 (BT-549) | GI50 (OVCAR-4) | GI50 (MDA-MB-231) | GI50 (NCI-H460) | GI50 (IGROV-1) | GI50 (A498) |
| --- | --- | --- | --- | --- | --- | --- | --- | --- | --- | --- | --- | --- | --- | --- | --- | --- | --- | --- | --- | --- |
| Cc1cnc2nc(-c3ccc(Cl)cc3)cc(O)c2c1 | 6.31 µM (inactive) | 11.1 µM (inactive) | 0.47 µM (active) | 5.05 µM (inactive) | 4.48 µM (inactive) | 29.4 µM (inactive) | 5.81 µM (inactive) | 11.5 µM (inactive) | 4.44 µM (inactive) | 5.82 µM (inactive) | 3.31 µM (inactive) | > 22.9 µM (inactive) | 1.87 µM (inactive) | 11.1 µM (inactive) | 9.95 µM (inactive) | 19.1 µM (inactive) | 5.27 µM (inactive) | 3.47 µM (inactive) | 5.66 µM (inactive) | 5.48 µM (inactive) |
| COC(=O)c1c(C)nc(C)c(NO)c1-c1ccccc1C(F)(F)F | 27 µM (inactive) | 31.8 µM (inactive) | 19.6 µM (inactive) | > 100 µM (inactive) | 19.2 µM (inactive) | 35.6 µM (inactive) | 19 µM (inactive) | 22 µM (inactive) | 29.2 µM (inactive) | 53.8 µM (inactive) | 26.1 µM (inactive) | 20.4 µM (inactive) | 5.41 µM (inactive) | 32.8 µM (inactive) | 16.7 µM (inactive) | 20 µM (inactive) | 13.8 µM (inactive) | > 100 µM (inactive) | 18.8 µM (inactive) | > 100 µM (inactive) |
| C[C@]12CC(c3ccccc3O1)C(C(N)=O)C(=O)N2 (stereo not given in full) | > 100 µM (inactive) | > 100 µM (inactive) | > 100 µM (inactive) | > 100 µM (inactive) | > 100 µM (inactive) | > 100 µM (inactive) | > 100 µM (inactive) | > 100 µM (inactive) | > 100 µM (inactive) | > 100 µM (inactive) | > 100 µM (inactive) | > 100 µM (inactive) | > 100 µM (inactive) | > 100 µM (inactive) | > 100 µM (inactive) | > 100 µM (inactive) | > 100 µM (inactive) | > 100 µM (inactive) | > 100 µM (inactive) | > 100 µM (inactive) |
| CN(NC(=O)c1ccco1)C1=NCCN1 | > 100 µM (inactive) | > 100 µM (inactive) | > 100 µM (inactive) | > 100 µM (inactive) | > 100 µM (inactive) | > 100 µM (inactive) | > 100 µM (inactive) | > 100 µM (inactive) | > 100 µM (inactive) | > 100 µM (inactive) | > 100 µM (inactive) | > 100 µM (inactive) | > 100 µM (inactive) | > 100 µM (inactive) | > 100 µM (inactive) | > 100 µM (inactive) | > 100 µM (inactive) | > 100 µM (inactive) | > 100 µM (inactive) | > 100 µM (inactive) |
